From PMC11945486, “TAS1R2/TAS1R3 Single-Nucleotide Polymorphisms Affect Sweet Taste Receptor Activation by Sweeteners: The SWEET Project” (Nutrients, 2025) come the findings set out here.

The assay has as its target T1, human TAS1R2-R838K/TAS1R3-WT (Homo sapiens, UniProt Q7RTX0+Q8TE23, R838K).
T1 construct: expressed in transfected cells; host or cells: HEK293T-Gα16gust44
T1 sequence (Q8TE23 20-839 R838K): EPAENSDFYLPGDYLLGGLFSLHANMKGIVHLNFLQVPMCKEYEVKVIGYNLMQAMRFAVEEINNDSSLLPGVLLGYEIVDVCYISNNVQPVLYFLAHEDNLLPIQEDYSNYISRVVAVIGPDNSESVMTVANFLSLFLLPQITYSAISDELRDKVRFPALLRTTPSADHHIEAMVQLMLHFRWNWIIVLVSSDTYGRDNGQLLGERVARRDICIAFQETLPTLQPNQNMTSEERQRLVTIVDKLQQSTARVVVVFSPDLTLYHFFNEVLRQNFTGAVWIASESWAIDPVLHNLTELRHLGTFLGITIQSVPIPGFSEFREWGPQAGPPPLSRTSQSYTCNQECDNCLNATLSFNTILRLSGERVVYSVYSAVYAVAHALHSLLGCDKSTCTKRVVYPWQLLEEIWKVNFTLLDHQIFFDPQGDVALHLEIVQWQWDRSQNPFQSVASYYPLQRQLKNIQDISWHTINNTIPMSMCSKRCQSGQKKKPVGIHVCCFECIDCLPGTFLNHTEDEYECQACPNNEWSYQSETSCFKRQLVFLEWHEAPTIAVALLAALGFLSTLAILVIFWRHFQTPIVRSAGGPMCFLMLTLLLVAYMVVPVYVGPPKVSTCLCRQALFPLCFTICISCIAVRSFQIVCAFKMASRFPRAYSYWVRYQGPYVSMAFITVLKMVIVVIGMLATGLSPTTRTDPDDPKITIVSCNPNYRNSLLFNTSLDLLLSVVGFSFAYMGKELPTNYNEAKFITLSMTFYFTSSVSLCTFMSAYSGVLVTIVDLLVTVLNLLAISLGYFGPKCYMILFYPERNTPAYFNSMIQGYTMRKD
T1 sequence (Q7RTX0 21-852): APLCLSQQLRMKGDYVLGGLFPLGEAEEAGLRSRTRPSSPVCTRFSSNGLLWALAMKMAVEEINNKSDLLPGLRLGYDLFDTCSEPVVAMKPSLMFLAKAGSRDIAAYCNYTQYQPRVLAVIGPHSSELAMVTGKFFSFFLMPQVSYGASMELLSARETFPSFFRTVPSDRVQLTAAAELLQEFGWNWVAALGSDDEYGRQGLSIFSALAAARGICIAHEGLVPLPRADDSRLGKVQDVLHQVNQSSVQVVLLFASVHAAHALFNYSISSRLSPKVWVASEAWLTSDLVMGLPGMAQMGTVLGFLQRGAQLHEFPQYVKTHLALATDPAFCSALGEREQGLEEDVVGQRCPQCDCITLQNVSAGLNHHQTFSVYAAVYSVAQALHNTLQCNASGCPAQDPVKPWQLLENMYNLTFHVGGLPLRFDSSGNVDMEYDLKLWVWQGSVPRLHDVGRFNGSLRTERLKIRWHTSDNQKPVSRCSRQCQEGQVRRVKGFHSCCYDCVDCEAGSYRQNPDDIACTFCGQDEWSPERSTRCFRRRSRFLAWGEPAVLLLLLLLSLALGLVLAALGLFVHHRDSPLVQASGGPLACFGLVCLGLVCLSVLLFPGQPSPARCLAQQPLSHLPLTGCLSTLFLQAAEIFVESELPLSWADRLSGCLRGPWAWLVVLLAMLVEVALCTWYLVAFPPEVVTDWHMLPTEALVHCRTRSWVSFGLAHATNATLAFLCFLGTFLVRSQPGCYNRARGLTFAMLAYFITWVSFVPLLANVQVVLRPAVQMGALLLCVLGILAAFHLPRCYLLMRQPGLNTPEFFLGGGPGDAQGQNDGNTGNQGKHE
In words: Calcium mobilisation assay, TAS1R2 variant R838K with TAS1R3-WT. As to conditions: for Max ΔF/F0: maximal signal amplitude. Type of assay: cell-based. The source says:
The coding sequences for TAS1R2 and TAS1R3 were commercially synthesised, and the human codon was optimised for expression in human cells. The coding sequences of human TAS1R2 and TAS1R3 were subcloned and inserted into the mammalian expression vectors pcDNA6/myc-HisA and pcDNA4/myc-HisA (Invitrogen; Thermo Fisher Scientific; Illkirch, France) between the EcoRI and NotI restriction sites, generating the plasmids pcDNA6-TAS1R2 and pcDNA4-TAS1R3, respectively. To increase protein expression in mammalian cells, an upstream start codon was used, which was a sequence called MAX, corresponding to the QBI SP163 element also described in pcDNA4-HisMax (Invitrogen; Thermo Fisher Scientific; Illkirch, France). To measure the expression level of the receptor by immunohistochemistry, we used the FLAG sequence ([…]) in the C-terminal position, which encodes the FLAG tag epitope. SNP variants of TAS1R2 and TAS1R3 were constructed based on […], respectively, using site-directed mutagenesis (Genewiz; Leipzig, Germany).
The HEK293T cells were kindly provided by Jay P. Slack (Givaudan Flavors Corporation; Cincinnati, OH, USA). HEK293T cells stably transfected with Gα16gust44 [43, 67] were seeded in poly-D-lysine-coated clear-bottom black 96-well plates (0.35 × 10^5 cells/well) in high-glucose DMEM supplemented with 2 mM GlutaMAX, 10% dialysed foetal bovine serum with penicillin/streptomycin and G418 (400 μg/mL) at 37 °C and 6.3% CO2 in a humidified atmosphere as previously reported. […] As a negative control, HEK293T cells were mock-transfected with the empty expression vector. After a further 24 h of incubation, the HEK293T cells were washed with C1 buffer (130 mM NaCl, 5 mM KCl, 10 mM HEPES pH 7.4 and 2 mM CaCl2). The 96-well plates containing the cells were then stimulated with sweet-tasting compounds. […] Different concentration ranges were tested depending on the sweet compound injected. The Ca^2+ changes were expressed as fractional changes in fluorescent light intensity: ΔF/F = (F − F0)/F0, where F was the fluorescent light intensity at each point, and F0 was the value of emitted fluorescent light prior to stimulus application. To calculate dose–response relationships, the changes in fluorescence upon stimulus application were averaged, mock-subtracted and baseline-corrected. The dose–response data obtained were adjusted using a 4-parameter logistic equation. The half-maximal effective concentrations (EC50 values) and maximal signal amplitudes were calculated using SigmaPlot software (version 15.0) (Systat Software; San Jose, CA, USA).
For in vitro calcium mobilisation assay performed on hTAS1R2-SNPs, hTAS1R3-SNPs and mTAS1R3-I60T, 6 to 7 concentrations were tested for each sweet compound, plus buffer alone. All concentration–receptor combinations were measured in duplicate, and each experiment was repeated at least 4 times (8 wells/concentration). Results were expressed for each concentration as ΔF/F mean ± SEM and represented as dose–response curves.
A general note: Calcium assays in cells follow changes in intracellular calcium, usually with a dye or a luminescent sensor.

No end group written: not given here.

What is called EC50 is the concentration giving half of the maximal effect. For the molecule `OC[C@H]1O[C@H](O[C@]2(CCl)O[C@H](CCl)[C@@H](O)[C@@H]2O)[C@H](O)[C@@H](O)[C@H]1Cl` [Sucralose], the EC50 was determined as 82 ± 6 µM, the “R1 = Variant EC50/WT EC50” value is given as 0.9 and the “Max ΔF/F0” value was 0.75 ± 0.02.

Turning to `C[C@H](CC[C@@H](O[C@@H]1O[C@H](CO[C@@H]2O[C@H](CO)[C@@H](O)[C@H](O)[C@H]2O)[C@@H](O)[C@H](O)[C@H]1O[C@@H]1O[C@H](CO)[C@@H](O)[C@H](O)[C@H]1O)C(C)(C)O)[C@H]1CC[C@@]2(C)[C@@H]3CC=C4[C@@H](CC[C@H](O[C@@H]5O[C@H](CO[C@@H]6O[C@H](CO)[C@@H](O)[C@H](O)[C@H]6O)[C@@H](O)[C@H](O)[C@H]5O)C4(C)C)[C@]3(C)[C@H](O)C[C@]12C` [Mogroside V, mogroside V], the EC50 was 17.1 ± 0.9 µM, the “R1 = Variant EC50/WT EC50” value is 1.0 and the “Max ΔF/F0” value came out at 1.31 ± 0.02.

As to `COC(=O)[C@H](Cc1ccccc1)NC(=O)[C@H](CC(=O)O)NCCC(C)(C)C` [Neotame], the EC50 was 0.66 ± 0.05 µM, the “R1 = Variant EC50/WT EC50” value was 0.8 and the “Max ΔF/F0” value is 0.75 ± 0.02.

Consider “brazzein (QDKCKKVYENYPVSKCQLANQCNYDCKLDKHARSGECFYDEKRNLQCICDYCEY; ends and bridges not checked; cysteine pairing not given here; UniProt P56552 1-54, looked up) [sweet-tasting protein obtained by recombinant production using the yeast Pichia pastoris]”, for which the “R1 = Variant EC50/WT EC50” value is 1.2 and the “Max ΔF/F0” value was found to be 1.2 ± 0.03.

As to `C=C(C)[C@@H]1CC=C(/C=N/O)CC1` [Perillartine, perillartine], the EC50 was found to be 19.1 ± 1.2 µM, the “R1 = Variant EC50/WT EC50” value worked out at 1.1 and the “Max ΔF/F0” value is given as 1.45 ± 0.03.

With `CC1=CC(=O)NS(=O)(=O)O1` [Acesulfame K, acesulfame K], the EC50 came to 484 ± 47 µM, the “R1 = Variant EC50/WT EC50” value was 0.7 and the “Max ΔF/F0” value is listed as 0.42 ± 0.02.

Take `C=C1C[C@@]23CC[C@H]4[C@@](C)(CCC[C@@]4(C)C(=O)O[C@@H]4O[C@H](CO)[C@@H](O)[C@H](O[C@@H]5O[C@H](CO)[C@@H](O)[C@H](O)[C@H]5O)[C@H]4O[C@@H]4O[C@H](CO)[C@@H](O)[C@H](O)[C@H]4O)[C@@H]2CC[C@]1(O[C@@H]1O[C@H](CO)[C@@H](O)[C@H](O[C@@H]2O[C@H](CO)[C@@H](O)[C@H](O)[C@H]2O)[C@H]1O[C@@H]1O[C@H](CO)[C@@H](O)[C@H](O)[C@H]1O)C3` [Rebaudioside M, rebaudioside M]: the EC50 turned out to be 18.2 ± 1.1 µM, the “R1 = Variant EC50/WT EC50” value amounted to 1.1 and the “Max ΔF/F0” value worked out at 1.20 ± 0.01.

For `O=S(=O)(O)NC1CCCCC1` [Cyclamate, cyclamate], the EC50 stood at 1730 ± 24 µM.

For `COc1ccc(CCC(=O)c2c(O)cc(O[C@@H]3O[C@H](CO)[C@@H](O)[C@H](O)[C@H]3O[C@@H]3O[C@@H](C)[C@H](O)[C@@H](O)[C@H]3O)cc2O)cc1O` [NHDC, neohesperidin dihydrochalcone], the EC50 came out at 75.8 ± 1.2 µM, the “R1 = Variant EC50/WT EC50” value came to 1.0 and the “Max ΔF/F0” value is 0.79 ± 0.05.

In the case of thaumatin, the “R1 = Variant EC50/WT EC50” value came to 1.4 and the “Max ΔF/F0” value amounted to 1.3 ± 0.02.

B1: thaumatin (protein)
chain: ATFEIVNRCSYTVWAAASKGDAALDAGGRQLNSGESWTINVEPGTKGGKIWARTDCYFDDSGSGICKTGDCGGLLRCKRFGRPPTTLAEFSLNQYGKDYIDISNIKGFNVPMDFSPTTRGCRGVRCAADIVGQCPAKLKAPGGGCNDACTVFQTSEYCCTTGKCGPTEYSRFFKRLCPDAFSYVLDKPTTVTCPGSSNYRVTFCPTA
modifications: Eight disulfides
notes: sweet-tasting plant protein, E957
Turning to B1, the EC50 was 10.4 ± 0.2 µM.
